In patent US20110053982A1, “ETHER BENZYLIDENE PIPERIDINE 5-MEMBERED ARYL CARBOXAMIDE COMPOUNDS USEFUL AS FAAH INHIBITORS” (PFIZER INC., priority 2008, published 2011):
Read-outs that look alike come from different tables or passages of the source.

Columns and labels:
Human FAAH = target: T1, Human FAAH (Homo sapiens, UniProt O00519); assay: FAAH assay, kinetic analysis of irreversible inhibition (kinact/Ki); assay type: biochemical
T1 construct: made in house
T1 sequence (O00519 32-579 limits assumed): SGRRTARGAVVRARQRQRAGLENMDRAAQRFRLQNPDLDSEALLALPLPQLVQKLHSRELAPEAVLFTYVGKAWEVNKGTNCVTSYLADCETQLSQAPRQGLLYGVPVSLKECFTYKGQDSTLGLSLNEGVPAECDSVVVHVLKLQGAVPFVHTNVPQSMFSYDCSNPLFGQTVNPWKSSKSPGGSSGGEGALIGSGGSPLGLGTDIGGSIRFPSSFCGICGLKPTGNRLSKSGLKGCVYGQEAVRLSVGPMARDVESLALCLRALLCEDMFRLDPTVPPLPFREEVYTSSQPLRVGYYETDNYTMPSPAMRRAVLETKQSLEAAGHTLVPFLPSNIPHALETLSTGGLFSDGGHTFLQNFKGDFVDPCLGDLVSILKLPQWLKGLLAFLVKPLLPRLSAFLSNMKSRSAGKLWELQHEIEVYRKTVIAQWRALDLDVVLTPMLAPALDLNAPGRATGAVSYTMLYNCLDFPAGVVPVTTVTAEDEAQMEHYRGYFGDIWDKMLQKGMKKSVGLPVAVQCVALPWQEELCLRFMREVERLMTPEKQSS
Description: A FAAH assay may be carried out in 384-well clear polystyrene plates in a total volume of 50 μl per well. All percents are by volume. To each well is placed the reaction mixture (40 μl) containing 1-4 nM FAAH, 50 mM NaPi, pH 7.4, 3 mM α-ketoglutarate, 0.15 mM NADH, 7.5 U/ml glutamate dehydrogenase, 2 mM ADP, 1 mM EDTA, and 0.1% Triton X-100 (The concentration shown for each component is the final concentration in the assay). To this mixture is added 5 μl of a compound of Examples 1 to 20 at various concentrations prepared in 50% DMSO (or 5 μl 50% DMSO for controls). This is immediately followed by the addition of 5 μl oleamide (500 μM) dissolved in […] and the reaction mixture is mixed for 1.5 min. The final concentrations of DMSO and EtOH in the assay are each 7.5%. The reactions is then incubated at 30° C. and the absorbance at 340 nm is collected over a period of 90 min with readings taken in 30-second intervals using SpectraMax Plus^384 Microplate Spectrophotometer (Molecular Devices, Sunnyvale, Calif.). Human FAAH used in the assay is prepared as described in the patent application WO 2006/067613. The purity of the enzyme used is preferably greater than 98% based on an analysis by SDS-polyacrylamide gel electrophoresis followed by Coomassie Blue staining.
Initial velocity data (V) is obtained from the slopes of the initial progressive curves. They are plotted as a function of substrate concentration and fit to the Michaelis-Menten equation (1) using Prism (GraphPad Software, Inc., San Diego, Calif.) software to obtain Km and Vmax values.
To obtain potencies of irreversible inhibitors, progressive curves consistent with first order inhibition kinetics (two-step irreversible inhibition mechanism) are fit to equation (2) by nonlinear least squares regressions to determine kobs values at each inhibitor concentration, where [P]t is the absorbance at time t, V0 is a constant related to the steady state rate of the uninhibited reaction, and kobs is the first order rate constant for enzyme inactivation. The inhibitor dissociation constant (Ki) and the first order rate
constant of enzyme inactivation at infinite inhibitor concentration (kinact) are then obtained by fitting the kobs vs. [I] curves to equation (3).

rFAAH = target: T2, rFAAH (Rattus norvegicus, UniProt P97612); assay: FAAH assay, rFAAH kobs/I; assay type: biochemical; conditions: additional data table, unit not given
T2 sequence (P97612 1-579): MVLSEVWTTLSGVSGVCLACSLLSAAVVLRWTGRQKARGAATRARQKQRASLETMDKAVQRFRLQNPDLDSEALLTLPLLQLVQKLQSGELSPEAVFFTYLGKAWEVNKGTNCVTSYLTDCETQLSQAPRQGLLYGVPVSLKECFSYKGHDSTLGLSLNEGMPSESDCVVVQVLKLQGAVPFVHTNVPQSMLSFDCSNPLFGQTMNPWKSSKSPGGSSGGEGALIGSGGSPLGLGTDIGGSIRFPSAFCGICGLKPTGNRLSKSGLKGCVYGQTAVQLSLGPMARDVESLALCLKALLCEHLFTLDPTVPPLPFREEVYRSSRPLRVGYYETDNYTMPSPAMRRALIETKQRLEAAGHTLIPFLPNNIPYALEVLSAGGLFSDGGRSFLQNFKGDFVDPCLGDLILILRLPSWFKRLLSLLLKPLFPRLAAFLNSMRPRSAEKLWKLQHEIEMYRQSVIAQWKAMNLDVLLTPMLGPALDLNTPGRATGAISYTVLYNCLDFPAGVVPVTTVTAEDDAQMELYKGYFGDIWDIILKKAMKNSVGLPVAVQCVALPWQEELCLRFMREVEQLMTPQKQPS

[1] = additional data table, unit inferred, read-out: hFAAH_Kinact/Ki

Structure (SMILES): Cc1oncc1NC(=O)N1CCC(=Cc2cccc(OCC3CCCCO3)c2)CC1 (centres unmarked) [N-(5-methylisoxazol-4-yl)-4-[3-(tetrahydro-2H-pyran-2-ylmethoxy)benzylidene]piperidine-1-carboxamide]
- kinact/KI (Human FAAH; [1]): 646 M⁻¹ s⁻¹
- FAAH_KINACTR:rFAAH:kobs/I (rFAAH): <11.3

Structure (SMILES): Cc1noc(NC(=O)N2CCC(=Cc3cccc(OCCCc4cnoc4)c3)CC2)c1C [N-(3,4-dimethylisoxazol-5-yl)-4-[3-(3-isoxazol-4-ylpropoxy)benzylidene]piperidine-1-carboxamide]
- kinact/KI (Human FAAH; [1]): 7170 M⁻¹ s⁻¹
- FAAH_KINACTR:rFAAH:kobs/I (rFAAH): 2580

Structure (SMILES): O=C(Nc1cnoc1)N1CCC(=Cc2cccc(OCC3CCCCO3)c2)CC1 (centres unmarked) [N-isoxazol-4-yl-4-[3-(tetrahydro-2H-pyran-2-ylmethoxy)benzylidene]piperidine-1-carboxamide]
- kinact/KI (Human FAAH; [1]): 384 M⁻¹ s⁻¹
- FAAH_KINACTR:rFAAH:kobs/I (rFAAH): 18

Structure (SMILES): Cc1noc(NC(=O)N2CCC(=Cc3cccc(OC4CCC(F)(F)CC4)c3)CC2)c1C [4-{3-[(4,4-difluorocyclohexyl)oxy]benzylidene}-N-(3,4-dimethylisoxazol-5-yl)piperidine-1-carboxamide]
- kinact/KI (Human FAAH; [1]): 2540 M⁻¹ s⁻¹
- FAAH_KINACTR:rFAAH:kobs/I (rFAAH): 1750

Structure (SMILES): Cc1oncc1NC(=O)N1CCC(=Cc2cccc(OCC(C)CC(F)(F)F)c2)CC1 (centres unmarked) [N-(5-methylisoxazol-4-yl)-4-[3-(4,4,4-trifluoro-2-methylbutoxy)benzylidene]piperidine-1-carboxamide]
- kinact/KI (Human FAAH; [1]): 3200 M⁻¹ s⁻¹
- FAAH_KINACTR:rFAAH:kobs/I (rFAAH): <11.5

Structure (SMILES): Cc1oncc1NC(=O)N1CCC(=Cc2cccc(OC(C)Cc3ccccc3)c2)CC1 (centres unmarked) [N-(5-methylisoxazol-4-yl)-4-[3-(1-methyl-2-phenylethoxy)benzylidene]piperidine-1-carboxamide]
- kinact/KI (Human FAAH; [1]): 2150 M⁻¹ s⁻¹
- FAAH_KINACTR:rFAAH:kobs/I (rFAAH): 208

Structure (SMILES): Cc1oncc1NC(=O)N1CCC(=Cc2cccc(OCCc3cccc(F)c3)c2)CC1 [4-{3-[2-(3-fluorophenyl)ethoxy]benzylidene}-N-(5-methylisoxazol-4-yl)piperidine-1-carboxamide]
- kinact/KI (Human FAAH; [1]): 11000 M⁻¹ s⁻¹
- FAAH_KINACTR:rFAAH:kobs/I (rFAAH): 59.9

Structure (SMILES): Cc1noc(NC(=O)N2CCC(=Cc3cccc(OCCc4cccc(F)c4)c3)CC2)c1C [N-(3,4-dimethylisoxazol-5-yl)-4-{3-[2-(3-fluorophenyl)ethoxy]benzylidene}piperidine-1-carboxamide]
- kinact/KI (Human FAAH; [1]): 12100 M⁻¹ s⁻¹
- FAAH_KINACTR:rFAAH:kobs/I (rFAAH): 9280

Structure (SMILES): Cc1noc(NC(=O)N2CCC(=Cc3cccc(OCC4CCCC4)c3)CC2)c1C [4-[3-(cyclopentylmethoxy)benzylidene]-N-(3,4-dimethylisoxazol-5-yl)piperidine-1-carboxamide]
- kinact/KI (Human FAAH; [1]): 5110 M⁻¹ s⁻¹
- FAAH_KINACTR:rFAAH:kobs/I (rFAAH): 2360

Structure (SMILES): Cc1oncc1NC(=O)N1CCC(=Cc2cccc(OCCc3ccc(F)cc3)c2)CC1 [4-{3-[2-(4-fluorophenyl)ethoxy]benzylidene}-N-(5-methylisoxazol-4-yl)piperidine-1-carboxamide]
- kinact/KI (Human FAAH; [1]): 1480 M⁻¹ s⁻¹
- FAAH_KINACTR:rFAAH:kobs/I (rFAAH): 52.7

Structure (SMILES): Cc1oncc1NC(=O)N1CCC(=Cc2cccc(OCC3CCC(F)(F)CC3)c2)CC1 [4-{3-[(4,4-difluorocyclohexyl)methoxy]benzylidene}-N-(5-methylisoxazol-4-yl)piperidine-1-carboxamide]
- kinact/KI (Human FAAH; [1]): 1730 M⁻¹ s⁻¹
- FAAH_KINACTR:rFAAH:kobs/I (rFAAH): 16.2

Structure (SMILES): Cn1nnnc1NC(=O)N1CCC(=Cc2cccc(OCC3CCCCO3)c2)CC1 (centres unmarked) [N-(1-methyl-1H-tetrazol-5-yl)-4-[3-(tetrahydro-2H-pyran-2-ylmethoxy)benzylidene]piperidine-1-carboxamide]
- kinact/KI (Human FAAH; [1]): 7490 M⁻¹ s⁻¹
- FAAH_KINACTR:rFAAH:kobs/I (rFAAH): 1610

Structure (SMILES): CCCCOc1cccc(C=C2CCN(C(=O)Nc3onc(C)c3C)CC2)c1 [4-(3-butoxybenzylidene)-N-(3,4-dimethylisoxazol-5-yl)piperidine-1-carboxamide]
- kinact/KI (Human FAAH; [1]): 14800 M⁻¹ s⁻¹
- FAAH_KINACTR:rFAAH:kobs/I (rFAAH): 2820

Structure (SMILES): Cc1cccc(OCCOc2cccc(C=C3CCN(C(=O)Nc4onc(C)c4C)CC3)c2)c1 [N-(3,4-dimethylisoxazol-5-yl)-4-{3-[2-(3-methylphenoxy)ethoxy]benzylidene}piperidine-1-carboxamide]
- kinact/KI (Human FAAH; [1]): 13900 M⁻¹ s⁻¹
- FAAH_KINACTR:rFAAH:kobs/I (rFAAH): 7840

Structure (SMILES): Cc1oncc1NC(=O)N1CCC(=Cc2cccc(OCCCc3cnoc3)c2)CC1 [4-[3-(3-isoxazol-4-ylpropoxy)benzylidene]-N-(5-methylisoxazol-4-yl)piperidine-1-carboxamide]
- kinact/KI (Human FAAH; [1]): 3990 M⁻¹ s⁻¹
- FAAH_KINACTR:rFAAH:kobs/I (rFAAH): <13.2

Structure (SMILES): Cc1oncc1NC(=O)N1CCC(=Cc2cccc(OCCCC(F)(F)F)c2)CC1 [N-(5-methylisoxazol-4-yl)-4-[3-(4,4,4-trifluorobutoxy)benzylidene]piperidine-1-carboxamide]
- kinact/KI (Human FAAH; [1]): 7410 M⁻¹ s⁻¹
- FAAH_KINACTR:rFAAH:kobs/I (rFAAH): <10.0

Structure (SMILES): Cc1noc(NC(=O)N2CCC(=Cc3cccc(OCCC(C)C)c3)CC2)c1C [N-(3,4-dimethylisoxazol-5-yl)-4-[3-(3-methylbutoxy)benzylidene]piperidine-1-carboxamide]
- kinact/KI (Human FAAH; [1]): 7710 M⁻¹ s⁻¹
- FAAH_KINACTR:rFAAH:kobs/I (rFAAH): 2590

Structure (SMILES): Cc1noc(NC(=O)N2CCC(=Cc3cccc(OC(C)Cc4ccccc4)c3)CC2)c1C (centres unmarked) [N-(3,4-dimethylisoxazol-5-yl)-4-[3-(1-methyl-2-phenylethoxy)benzylidene]piperidine-1-carboxamide]
- kinact/KI (Human FAAH; [1]): 3410 M⁻¹ s⁻¹
- FAAH_KINACTR:rFAAH:kobs/I (rFAAH): 10600

Structure (SMILES): Cc1oncc1NC(=O)N1CCC(=Cc2cccc(OCC3CCCC3)c2)CC1 [4-[3-(cyclopentylmethoxy)benzylidene]-N-(5-methylisoxazol-4-yl)piperidine-1-carboxamide]
- kinact/KI (Human FAAH; [1]): 838 M⁻¹ s⁻¹
- FAAH_KINACTR:rFAAH:kobs/I (rFAAH): <10.0

Structure (SMILES): Cc1noc(NC(=O)N2CCC(=Cc3cccc(OCC(C)CC(F)(F)F)c3)CC2)c1C (centres unmarked) [N-(3,4-dimethylisoxazol-5-yl)-4-[3-(4,4,4-trifluoro-2-methylbutoxy)benzylidene]piperidine-1-carboxamide]
- kinact/KI (Human FAAH; [1]): 5190 M⁻¹ s⁻¹
- FAAH_KINACTR:rFAAH:kobs/I (rFAAH): 2530

Structure (SMILES): Cc1noc(NC(=O)N2CCC(=Cc3cccc(OCCC4CC4)c3)CC2)c1C [4-[3-(2-cyclopropylethoxy)benzylidene]-N-(3,4-dimethylisoxazol-5-yl)piperidine-1-carboxamide]
- kinact/KI (Human FAAH; [1]): 12900 M⁻¹ s⁻¹
- FAAH_KINACTR:rFAAH:kobs/I (rFAAH): 2660

Structure (SMILES): Cc1cccc(OCCOc2cccc(C=C3CCN(C(=O)Nc4cnoc4C)CC3)c2)c1 [N-(5-methylisoxazol-4-yl)-4-{3-[2-(3-methylphenoxy)ethoxy]benzylidene}piperidine-1-carboxamide]
- kinact/KI (Human FAAH; [1]): 10600 M⁻¹ s⁻¹
- FAAH_KINACTR:rFAAH:kobs/I (rFAAH): 57.1

Structure (SMILES): Cc1ncsc1CCOc1cccc(C=C2CCN(C(=O)Nc3cnoc3C)CC2)c1 [N-(5-methylisoxazol-4-yl)-4-{3-[2-(4-methyl-1,3-thiazol-5-yl)ethoxy]benzylidene}piperidine-1-carboxamide]
- kinact/KI (Human FAAH; [1]): 903 M⁻¹ s⁻¹
- FAAH_KINACTR:rFAAH:kobs/I (rFAAH): <11.9

Structure (SMILES): Cc1noc(NC(=O)N2CCC(=Cc3cccc(OCC4CCCCO4)c3)CC2)c1C (centres unmarked) [Example 1, N-(3,4-dimethylisoxazol-5-yl)-4-[3-(tetrahydro-2H-pyran-2-ylmethoxy)benzylidene]piperidine-1-carboxamide]
- kinact/KI (Human FAAH; oleamide substrate, 30° C., pH 7.4, read-out: hFAAH KInact/KI): 5450 M⁻¹ s⁻¹
